Article PMC2726771 (The Journal of neuroscience : the official journal of the …, 2009)
Several values for one entry are separate records, joined by “and”; a condition that tells them apart may be missing. Identical values can stand only once. Like-named read-outs stand apart in the source and are kept apart here.

Legend:
[1] = target: α3T115Cβ2 nAChR (Rattus norvegicus, UniProt P04757+P12390, T142C); assay type: cell-based; conditions: for time constant τ of MTSET modification: response to 300 μM ACh + 10 μM Mor; for potentiation (IACh+Mor/IACh), sample traces Fig. 2: 300 μM ACh + 10 μM Mor
Chain of α3T115Cβ2 nAChR (P04757 26-499 T142C): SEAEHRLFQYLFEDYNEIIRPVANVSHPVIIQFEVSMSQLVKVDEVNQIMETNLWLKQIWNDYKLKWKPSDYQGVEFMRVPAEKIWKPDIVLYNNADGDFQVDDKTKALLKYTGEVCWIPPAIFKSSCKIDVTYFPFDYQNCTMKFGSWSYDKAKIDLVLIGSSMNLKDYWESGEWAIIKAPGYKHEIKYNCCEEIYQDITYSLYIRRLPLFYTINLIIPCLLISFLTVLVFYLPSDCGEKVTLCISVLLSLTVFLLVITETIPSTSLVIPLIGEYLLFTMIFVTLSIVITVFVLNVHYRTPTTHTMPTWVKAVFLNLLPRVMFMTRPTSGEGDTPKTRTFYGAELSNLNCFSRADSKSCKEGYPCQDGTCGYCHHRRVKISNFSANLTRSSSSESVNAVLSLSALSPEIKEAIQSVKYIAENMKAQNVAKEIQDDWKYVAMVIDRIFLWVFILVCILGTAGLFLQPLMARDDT
Chain of α3T115Cβ2 nAChR (P12390 25-500): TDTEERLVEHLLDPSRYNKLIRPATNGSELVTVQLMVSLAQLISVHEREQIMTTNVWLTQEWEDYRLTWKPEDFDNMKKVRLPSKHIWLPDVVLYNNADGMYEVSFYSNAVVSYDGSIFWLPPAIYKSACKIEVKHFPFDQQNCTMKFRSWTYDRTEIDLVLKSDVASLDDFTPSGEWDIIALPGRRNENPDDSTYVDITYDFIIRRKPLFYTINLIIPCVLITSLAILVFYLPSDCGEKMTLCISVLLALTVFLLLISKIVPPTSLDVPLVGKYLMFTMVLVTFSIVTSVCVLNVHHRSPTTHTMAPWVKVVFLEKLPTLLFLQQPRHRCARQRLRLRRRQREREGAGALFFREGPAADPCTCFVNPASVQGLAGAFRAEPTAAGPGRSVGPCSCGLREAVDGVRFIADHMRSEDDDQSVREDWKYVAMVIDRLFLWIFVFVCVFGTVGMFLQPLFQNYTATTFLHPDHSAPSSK

[2] = target: α3β2T150C nAChR (Rattus norvegicus, UniProt P04757+P12390, T176C); assay type: cell-based; conditions: for decrease of Mor potency / reduction of maximum Mor-evoked current (efficacy): after 100 μM reagent; for potentiation (IACh+Mor/IACh), sample traces Fig. 2: 300 μM ACh + 10 μM Mor; for potentiation: 10 μM Mor
Chain of α3β2T150C nAChR (P04757 26-499): as the sequence (P04757 26-499 T142C) above, with C117T counted along it
Chain of α3β2T150C nAChR (P12390 25-500 T176C): as the sequence (P12390 25-500) above, with T152C counted along it

[3] = target: α3β2S192C nAChR (Rattus norvegicus, UniProt P04757+P12390, S218C); assay type: cell-based
Chain of α3β2S192C nAChR (P04757 26-499): as the sequence (P04757 26-499 T142C) above, with C117T counted along it
Chain of α3β2S192C nAChR (P12390 25-500 S218C): as the sequence (P12390 25-500) above, with S194C counted along it

[4] = tested on: α3E113R; conditions: ref Laureijs and Levandoski, unpublished; cited from earlier work
[5] = target: α3β2S148C nAChR (Rattus norvegicus, UniProt P04757+P12390, S174C); assay type: cell-based
Chain of α3β2S148C nAChR (P04757 26-499): as the sequence (P04757 26-499 T142C) above, with C117T counted along it
Chain of α3β2S148C nAChR (P12390 25-500 S174C): as the sequence (P12390 25-500) above, with S150C counted along it

[6] = target: α3β2T193C nAChR (Rattus norvegicus, UniProt P04757+P12390, T219C); assay type: cell-based
Chain of α3β2T193C nAChR (P04757 26-499): as the sequence (P04757 26-499 T142C) above, with C117T counted along it
Chain of α3β2T193C nAChR (P12390 25-500 T219C): as the sequence (P12390 25-500) above, with T195C counted along it

[7] = target: α3A106Cβ2 nAChR (Rattus norvegicus, UniProt P04757+P12390, A133C); assay type: cell-based
Chain of α3A106Cβ2 nAChR (P04757 26-499 A133C): as the sequence (P04757 26-499 T142C) above, with A108C, C117T counted along it
Chain of α3A106Cβ2 nAChR (P12390 25-500): as the sequence (P12390 25-500) above

[8] = target: T1, α3β2 wt nAChR (Rattus norvegicus, UniProt P04757+P12390); conditions: ref Wu et al., 2008, cited from earlier work
T1 sequence (P04757 26-499): as the sequence (P04757 26-499 T142C) above, with C117T counted along it
T1 sequence (P12390 25-500): as the sequence (P12390 25-500) above

[9] = target: α3S161Cβ2 nAChR (Rattus norvegicus, UniProt P04757+P12390, S188C); assay type: cell-based
Chain of α3S161Cβ2 nAChR (P04757 26-499 S188C): as the sequence (P04757 26-499 T142C) above, with C117T, S163C counted along it
Chain of α3S161Cβ2 nAChR (P12390 25-500, stated change not applied): as the sequence (P12390 25-500) above

[10] = target: T1, α3β2 wt nAChR; assay type: cell-based
[11] = 100 μM MTSET + 200 μM ACh treatment, ACh + 10 μM Mor
[12] = 100 μM MTSET + 200 μM ACh, four 30-sec
[13] = relative to response to ACh alone at [ACh] ~ EC50
[14] = 100 μM MTSET applied alone, 2 min
[15] = 100 μM MTSET co-applied with ACh, 2 min
[16] = after 2-min 100 μM MTSET co-applied with ACh

For CS(=O)(=O)SCc1ccccc1 [MTSBn, benzylmethanethiosulfonate], the potentiation post/pre ([1]; after 100 μM MTS reagent alone) was 0.99 ± 0.10, the “reduction of ACh-evoked currents” value ([1]; after 100 μM MTS reagent alone) was 29 ± 9% and the “reduction of ACh/Mor-evoked currents” value ([1]; after 100 μM MTS reagent alone) was 30 ± 10%. For the same compound, the “decrease of Mor potency” value ([2]; four 30-sec doses) was 4 fold and the “reduction of maximum Mor-evoked current (efficacy)” value ([2]; four 30-sec doses) was 45%.
With C[N+](C)(C)CCSS(C)(=O)=O.[Br-] [MTSET, [2-(trimethyl-ammonium)ethyl]methanesthiosulfonate bromide] the “time constant τ of MTSET modification” value ([1]; 30 μM MTSET alone) was 170 s and 167 ± 22 s, the “time constant τ of MTSET modification” value ([1]; 30 μM MTSET co-applied with 100 μM Mor) was 720 s and 719 ± 137 s and the “time constant τ of MTSET modification” value ([1]; 30 μM MTSET co-applied with 300 μM ACh) was 34 s and 34 ± 12 s. For the same compound, the “reduction of ACh-evoked currents” value ([1]; after 100 μM MTS reagent alone) was “unchanged”, the “reduction of ACh/Mor-evoked currents” value ([1]; after 100 μM MTS reagent alone) was 32 ± 9% and the “reduction of degree of potentiation” value ([1]; after 100 μM MTS reagent alone) was 31 ± 8%. For the same compound, the “decrease of Mor efficacy” value ([1]; after 100 μM MTSET alone) was 66%, the “decrease in efficacy of ACh/Mor concentration-response curve” value [2, 11] was 50% and the “decrease in potency of ACh/Mor concentration-response curve” value [2, 11] was 3 fold. The “decrease in ACh efficacy (maximum response at high ACh)” value [2, 12] was 75%, the “decrease in ACh potency after MTSET/agonist co-application” value [2, 12] was 4.5 fold and the “decrease of Mor potency” value ([2]; four 30-sec doses) was “without changing the potency”. For the same compound, the “reduction of maximum Mor-evoked current (efficacy)” value ([2]; four 30-sec doses) was 75 - 80%.
With Cc1ccsc1C=CC1=NCCCN1C.O=C(O)C(O)C(O)C(=O)O [Mor, 1,4,5,6-tetrahydro-1-methyl-2-(2-[3-methyl-2-thienyl]ethenyl)pyrimidine, tartrate salt] the EC50 [3] was 20 ± 6 µM, the “change in Mor potentiation after MTSET alone” value ([3]; 100 μM MTSET alone, four 30-sec doses, 30 μM ACh) was “no change in potentiation outside of error” and the “Mor-evoked Response nH” value ([3]; Hill coefficient) was 1.8 ± 0.7. The “Mor Potentiation IACh+Mor/IACh” value ([3]; [ACh] ~ EC50 ± 10 μM Mor) was 1.4 ± 0.1, the “Mor-evoked Response Emax” value [3, 13] was 0.08 ± 0.01 and the Mor potentiation [4] was “completely abolishes Mor potentiation”. For the same compound, the EC50 [5] was 110 ± 40 µM, the “Mor Potentiation % Change after MTS” value [5, 14] was -7 ± 10% and the “Mor-evoked Response nH” value ([5]; Hill coefficient) was 1.4 ± 0.5. The “Mor Potentiation IACh+Mor/IACh” value ([5]; [ACh] ~ EC50 ± 10 μM Mor) was 4.9 ± 1.0, the “Mor-evoked Response Emax” value [5, 13] was 0.36 ± 0.05 and the EC50 [6] was 20 ± 3 µM. The “Mor Potentiation % Change after MTS” value [6, 15] was 2 ± 4%, the “Mor-evoked Response nH” value ([6]; Hill coefficient) was 1.7 ± 0.3 and the “Mor Potentiation IACh+Mor/IACh” value ([6]; [ACh] ~ EC50 ± 10 μM Mor) was 1.5 ± 0.1. The “Mor-evoked Response Emax” value [6, 13] was 0.24 ± 0.1, the EC50 [7] was 62 ± 11 µM and the “change in Mor potentiation after MTSET alone” value ([7]; 100 μM MTSET alone, four 30-sec doses, 100 μM ACh) was “no change in potentiation outside of error”. For the same compound, the “Mor-evoked Response nH” value ([7]; Hill coefficient) was 2.1 ± 0.7, the “Mor Potentiation IACh+Mor/IACh” value ([7]; [ACh] ~ EC50 ± 10 μM Mor) was 1.7 ± 0.2 and the “Mor-evoked Response Emax” value [7, 13] was 0.56 ± 0.05. For the same compound, the “Mor-evoked Response nH” value ([8]; Hill coefficient) was 3.1 ± 1.6, the “Mor-evoked Response Emax” value [8, 13] was 0.2 and the EC50 [1] was 30 µM. The “potentiation IACh+Mor/I30 μM ACh” value ([1]; 30 μM ACh (~EC20)) was 7.7, the potentiation post/pre ([1]; 50 μM Mor included with the MTSET/300 μM ACh co-application) was 1.05 ± 0.07 and the “Mor Potentiation % Change after MTS” value ([1]; 100 μM MTSET co-applied with ACh (300 μM), 2 min) was “* -30 ± 4%”. For the same compound, the “potentiation IACh+Mor/I300 μM ACh” value ([1]; 300 μM ACh (~EC50)) was 2.2, the “Mor-evoked Response nH” value ([1]; Hill coefficient, pre MTSET in Fig. 8) was 1.4 ± 0.1 and the “Mor Potentiation IACh+Mor/IACh” value ([1]; [ACh] ~ EC50 ± 10 μM Mor) was 2.3 ± 0.3. For the same compound, the “Mor nH post MTSET” value ([1]; after 100 μM MTSET alone, four 30-sec doses) was 2.2 ± 1.4, the “Mor Emax post MTSET” value ([1]; after 100 μM MTSET alone, normalized to 300 μM ACh before modification) was 0.1 and 0.10 ± 0.01 and the “potentiation (IACh+Mor/IACh), sample traces Fig. 2” value (shortened to “potentiation (IACh+Mor/IACh)”) [1, 16] was 2.8. The “potentiation (IACh+Mor/IACh)” value ([1]; pre-MTSET) was 4.5, the “Mor-evoked Response Emax” value ([1]; relative to response to ACh alone at [ACh] ~ EC50 (300 μM), pre MTSET in Fig. 8) was 0.3 and 0.29 ± 0.01 and the “Mor Potentiation % Change after MTS” value [9, 14] was 3 ± 8%. The “Mor Potentiation IACh+Mor/IACh” value ([9]; [ACh] ~ EC50 ± 10 μM Mor) was 1.3 ± 0.1, the “Mor Potentiation % Change after MTS” value [10, 15] was 3 ± 3% and the “Mor Potentiation IACh+Mor/IACh” value ([10]; [ACh] ~ EC50 ± 10 μM Mor) was 1.9 ± 0.1. The “potentiation (IACh+Mor/IACh)” value ([10]; pre-MTSET, 100 μM ACh + 10 μM Mor) was 2.8, the “Mor Potentiation % Change after MTS” value [2, 14] was “* 52 ± 17%” and the “Mor-evoked Response nH” value ([2]; Hill coefficient) was 2.3 ± 0.2. For the same compound, the EC50 ([2]; Mor EC50, Control, pre-treatment control, Fig. 7) was 20 ± 2 µM, the EC50 ([2]; Mor EC50 after BrACh, after 100 μM BrACh, four 30-sec doses) was 30 ± 5 µM and the EC50 ([2]; Mor EC50 after MTSBn, after 100 μM MTSBn, four 30-sec doses) was 80 ± 20 µM. For the same compound, the EC50 ([2]; Mor EC50 after MTSEA, after 100 μM MTSEA, four 30-sec doses) was 30 ± 1 µM, the EC50 ([2]; Mor EC50 after MTSET, after 100 μM MTSET, four 30-sec doses) was 20 ± 4 µM and the EC50 ([2]; Mor-evoked Response EC50, Mor as agonist) was 26 ± 1 µM. The “Mor Potentiation IACh+Mor/IACh” value ([2]; [ACh] ~ EC50 ± 10 μM Mor) was 1.6 ± 0.1, the “Mor nH after BrACh” value ([2]; after 100 μM BrACh) was 1.5 ± 0.4 and the “Mor Emax after BrACh” value ([2]; after 100 μM BrACh, normalized to pre-treatment 300 μM Mor response) was 0.96 ± 0.07. For the same compound, the “Mor nH after MTSBn” value ([2]; after 100 μM MTSBn) was 2.7 ± 1.5, the “Mor Emax after MTSBn” value ([2]; after 100 μM MTSBn, normalized to pre-treatment 300 μM Mor response) was 0.56 ± 0.07 and the “Mor nH after MTSEA” value ([2]; after 100 μM MTSEA) was 2.3 ± 0.3. For the same compound, the “Mor Emax after MTSEA” value ([2]; after 100 μM MTSEA, normalized to pre-treatment 300 μM Mor response) was 0.20 ± 0.01, the “Mor nH after MTSET” value ([2]; after 100 μM MTSET) was 3.4 ± 1.9 and the “Mor Emax after MTSET” value ([2]; after 100 μM MTSET, normalized to pre-treatment 300 μM Mor response) was 0.24 ± 0.02. For the same compound, the “potentiation (IACh+Mor/IACh)” value [2, 16] was 7.5, the potentiation ([2]; measured at ~EC50 ACh, after MTSET treatment) was 4.0 and the potentiation ([2]; measured at ~EC50 ACh, before MTSET treatment) was 1.6. For the same compound, the potentiation ([2]; measured at ~EC75 ACh, after MTSET treatment) was 3.0, the potentiation ([2]; measured at ~EC75 ACh, before MTSET treatment) was 1.5 and the “Mor Emax, Control” value ([2]; normalized to pre-treatment 300 μM Mor response) was 1.00. For the same compound, the “potentiation (IACh+Mor/IACh)” value ([2]; pre-MTSET) was 3.3, the “I300 μM Mor/I300 μM ACh (pre)” value ([2]; pre-treatment) was 0.14 ± 0.01 and the “Mor nH, Control” value ([2]; pre-treatment control, Fig. 7) was 2.2 ± 0.4. The “Mor-evoked Response Emax” value [2, 13] was 0.33 ± 0.04.
